Measured values from US20220062317A1, “NA+/K+ ATPASE INHIBITORS FOR USE IN THE PREVENTION OR TREATMENT OF METASTASIS” (UNIVERSITÄT BASEL, priority 2018, published 2022).

How the values were obtained:
BR16 CTC-derived cells = test: FDA-approved compound screen for CTC cluster dissociation (high content imaging); format: cell-based, human; conditions: even at lowest concentration tested (0.1 μM), 2 days, hypoxia
Procedure: In order to identify actionable vulnerabilities of CTC clusters, and to test whether the epigenetic and transcriptional features of clustered CTCs are reversible upon cluster dissociation into single cells the following steps were undertaken. First, the expression of all known cell-cell junction (CCJ) components in patient samples obtained from normal breast (TGCA REF), breast cancer (TOGA REF), single CTCs and CTC clusters were assessed (Aceto et al. Cell 2014). While breast cancer cells tend to only partially reduce their CCJ repertoire compared to normal breast cells, CTCs express only a small fraction of CCJ components, likely as a consequence to their increased motility. Yet, CTC clusters retain a higher number of CCJs as compared to single CTCs. […] To this end, 2′486 FDA-approved compounds were evaluated for their ability to dissociate clusters of human breast CTC-derived cells. Cluster dissociation was assessed using a high content screening microscope and comparing cells treated with each individual compound to steady state clustered BR16 cells and 40 μm-filtered BR16 single cell suspension as negative and positive controls, respectively (FIG. 4a). […] For the majority of the 2′486 FDA-approved compounds, when using a 5 μM concentration for 2 days in hypoxic conditions, no detectable reduction in cell viability (>70% viability) nor mean cluster size (>450 μm2) in BR16 CTC-derived cells was observed. […] These compounds include inhibitors of Na^+/K^+ ATPases (n=6), HDACs (n=2), nucleotide biosynthesis (n=5), kinases (n=4), GPCRs (n=2), cholesterol biosynthesis (n=1), nuclear export (n=1), tubulin (n=9), as well as DNA binding compounds (n=8) and antibiotics (n=1).
A library containing 2,486 FDA-approved compounds was purchased from the Nexus Platform ETH Zurich. Each compound was resuspended using CTC medium at a 15 μM concentration and 20 μl were aliquoted in duplicate in a total of 64 Flat Bottom Clear Ultra Low attachment 96-well plates (Corning, Cat #3474).
To reduce cluster size in CTC derived cell lines, a 40 μm cell strainer was used (Corning, Cat #431750). […] Plates were incubated in hypoxia (5% oxygen) for 2 days and then 20 μl were transferred into a 96 well Black/clear Tissue culture treated plate (BD Falcon, Cat #353219) containing 40 μl of D-PBS (Invitrogen, Cat #14190169) and stained for 1 hr at 37° C. with a final concentration of 4 μM Hoechst 34580 (Invitrogen, Cat #H21486), 2 μM TMRM (Invitrogen, Cat #T668) and 4 μM TOTO-3 (Invitrogen, Cat #T3604). For each plate, two positive controls (non-treated cells) and two negative controls (non-treated and […] cells) were included. Z-factors were calculated per individual plate using the following formula: Z′=1−3(σs+σc)/|μs−μc|^3 (σ: standard deviation, μ: mean, s: positive control and c: negative control) (Martin et al., PLoS One 9, e88338, 2014) and ranged between 0.62-0.937. Plates were scanned using Operetta High Content Imaging System (Perkin Elmer) and cluster analysis was performed using Harmony High Content Imaging and Analysis Software (Perkin Elmer).

[1] = tested on: BRx50 human CTC-derived cells; test: as above; format: cell-based; conditions: even at lowest concentration tested (0.1 μM)
BR16 xenografts = test: BR16 xenograft (mammary fat pad), spontaneous CTC clusters and metastasis; format: in vivo, NSG mice; conditions: ouabain daily for three weeks
Procedure: Blood specimens for CTC analysis were obtained from University Hospital Basel after informed patient consent according to protocol EKNZ BASEC 2016-00067 and EK 321/10, which received ethical approval from the Swiss authorities (EKNZ, Ethics Committee northwest/central Switzerland). An average of 7.5 ml of blood per patient was drawn in EDTA vacutainers. Within 1 hr from blood draw, the blood was processed through Parsortix GEN3D6.5 Cell Separation Cassette (Angle Europe). For mouse studies, blood was retrieved via cardiac puncture and 1 ml of blood was similarly processed through a Parsortix device. Captured CTCs were further stained on Parsortix cassette with EpCAM-AF488 conjugated (CellSignaling, Cat #CST5198), HER2-AF488 (#324410, BioLegend), EGFR-FITC conjugated (GeneTex, Cat #GTX11400) and CD45-BV605 conjugated (Biolegend, Cat #304042 (anti-human); Cat #103140 (anti-mouse)) antibodies. For all other models (xenografts), carrying cancer cells stably expressing a GFP-Luciferase reporter, only anti-CD45 staining was performed, while CTCs were identified based on GFP expression. The number of captured CTCs, including single CTCs, CTC clusters and CTC-WBC clusters, was determined while cells were still in the cassette. CTCs were then released from the cassette in DPBS (#14190169, Gibco) onto ultra-low attachment plates (#3471-COR, Corning). Representative pictures were taken at 40× magnification with Leica DM14000 fluorescent microscope using Leica LAS and analyzed with ImageJ.
For tail vein experiments, NOD SCID Gamma (NSG) mice (Jackson Labs) were injected with 1×10^6 BR16-mCherry cells resuspended in 100 μl D-PBS and monitored with IVIS Lumina II (Perkin Elmer). For CTC xenograft mouse model isolation, 1×10^6 LM2-GFP, 1×10^6 BRx50-GFP or 1×10^6 BR16-GFP cells were resuspended in 100 μl of 50% Cultrex PathClear Reduced Growth Factor Basement Membrane Extract (R&D Biosystems, Cat #3533-010-02) in D-PBS and injected orthotopically in NSG mice. Blood draw was performed 4-5 weeks after tumor onset for LM2 cells, 5-6 months after tumor onset for BR16 and 6-7 months after tumor onset for BRx50 cells.

LM2 xenografts = test: LM2 xenograft, spontaneous CTC clusters and metastasis; format: in vivo, NSG mice; conditions: LM2 tumors; ouabain treatment

Q: How did the mean cluster size (BR16 CTC-derived cells) turn out when `C[C@@H]1O[C@@H](O[C@H]2C[C@@H](O)[C@]3(CO)[C@H]4[C@H](O)C[C@]5(C)[C@@H](C6=CC(=O)OC6)CC[C@]5(O)[C@@H]4CC[C@]3(O)C2)[C@H](O)[C@H](O)[C@H]1O` [ouabain, Ouabain] was run?
A: significant decrease in mean cluster size

Q: What about the mean cluster size [1] of the same compound?
A: significant decrease in mean cluster size

Q: And the “frequency of single CTCs” value (BR16 xenografts)?
A: increasing the frequency

Q: And the “frequency of spontaneously-generated CTC clusters” value (BR16 xenografts)?
A: reduced the frequency

Q: And the “overall CTC numbers” value (BR16 xenografts)?
A: without altering

Q: And the “size of the primary tumor” value (BR16 xenografts)?
A: without altering

Q: And the “suppression of the total metastatic burden” value (BR16 xenografts)?
A: 80.7 fold

Q: What about the “CTC clusters (proportion)” value (LM2 xenografts) of the same compound?
A: decrease in CTC clusters

Q: What about the “metastatic burden compared to control” value (LM2 xenografts) of the same compound?
A: reduced metastatic burden

Q: And the “overall CTC numbers” value (LM2 xenografts)?
A: without any change

Q: What about the primary tumor size (LM2 xenografts) of the same compound?
A: without any change

Q: What about the “proportion of single CTCs” value (LM2 xenografts) of the same compound?
A: increase in the proportion of single CTCs
